Source: US7223835B2, “VEGF peptides and their use for inhibiting angiogenesis” (Ark Therapeutics Ltd., priority 2000, dated 2007)

Tested on: human endothelial cell-derived tubule formation
Experiment: In vitro angiogenesis assay, endothelial cell-derived tubule formation in co-culture with human fibroblasts
Assay type: cell-based
Settings: tubule formation at day 11, CD31 immunostaining, with and without VEGF; FIG. 4
Description: An in vitro angiogenesis assay based on human endothelial cell-derived tubule formation (TCS Biologicals) in a co-culture with human fibroblasts was used to investigate the effects of selected peptides on angiogenesis. The peptides, together with VEGF and other factors were added at the start of the experiment and at each medium change at days 4, 7 and 9. At day 11, the cultures were fixed with 70% ethanol for 30 min at room temperature and subsequently subjected to immunostaining for the endothelial cell adhesion molecule CD31. Fixed cells were incubated with the primary antibody (mouse anti-human CD31) for 1 h at 37° C., washed 3 times in blocking buffer (PBS containing 1% BSA), and then incubated with the secondary antibody (goat anti-mouse IgG conjugated to alkaline phosphatase) for 1 h at 37° C. After 3 washes in distilled water, the cells were finally incubated with the substrate solution for 10 min at 37° C. Immunostaining was observed and photographed using an inverted Zeiss microscope (Axiovert CFL25) fitted with a ×4 objective lens. […] A, VEGF released from untreated control during 11 days, measured by specific immunoassay; B, untreated control; C, VEGF; D, peptide 121–132; E, VEGF in the presence of peptide 121–132; F, peptide 125–136; and G, VEGF in the presence of peptide 125–136.

RKRKKSR [SEQ ID NO:21, 7-mer truncated derivative of the 12-mer V125–136 protein]
inhibition of angiogenesis (Chalkley count), potency compared with the 12-mer: inhibits angiogenesis with similar potency to the 12-mer
